From patent publication US20070238680A1, “Substance and process for preventing a genetic defect from being passed onto offspring” (priority 2006, published 2007)

What was measured:
H/H sperm = test: Sperm motility after about 24 hours in potassium-fortified sperm extender, computer-assisted semen analyzer; format: cell-based, horse
Experimental: (§1) Three curves are plotted—one for motility of N/N sperm, one for N/H sperm and one for H/H sperm. […] In the tests, the sperm was kept in the particular sperm extender formula for about 24 hours. It was then diluted with standard sperm extender (with the low potassium concentration) at about an 8-to-1 ratio in a bullet tube, and its motility was measured using a computer-assisted semen analyzer. Note that the bold lines on the graph are linear extrapolations between the actual data points, which are shown in squares, triangles and diamonds, and are not accurate representations of the actual values between those data points.
As shown in the bottom-most curve in FIG. 6, as the potassium concentration increases, the motility of the H/H sperm sample drops to zero somewhere prior to 50 times the standard potassium concentration. Because all sperm in the H/H sample contain the defective sperm, we conclude that all defective sperm are immobilized at this concentration. More importantly, the sperm are permanently immobilized, as the test measured motility after the sperm sample was re-extended, restoring metabolic potassium levels.

N/N sperm = test: as above; format: cell-based, horse; details: for motility of the N/N sperm sample: about 24 hours, then re-extended about 8-to-1
Experimental: as §1

N/H sperm = test: as above; format: cell-based, horse
Experimental: as §1

[1] = system: genetically defected sperm versus healthy sperm; details: potassium concentration in the extra-cellular fluid in the same range for all salts
[2] = 100 times the normal potassium concentration
[3] = 70 times the normal potassium concentration, extrapolated from the curve

Compound	impairment of defective cells (H/H sperm; [2])	microscopic examination of the morphology of the sperm cells (H/H sperm; H/H sperm after high potassium exposure)	motility of the H/H sperm sample (H/H sperm; somewhere prior to 50 times the standard potassium concentration, about 24 hours, then re-extended about 8-to-1)	motility of the N/N sperm sample (N/N sperm; 50 times standard potassium concentration)	motility rate for N/N sperm cells (N/N sperm; [3]) [%]	motility of the N/N sperm sample (N/N sperm; [2]) [%]	motility percentage of N/H sperm cell sample (N/H sperm; 50 times the normal potassium concentration, about 24 hours, then re-extended about 8-to-1)	motility rate for N/H sperm cells (N/H sperm; [3]) [%]	suitable triggering event that impaired genetically defected sperm without also impairing healthy sperm [1]
[Cl-].[K+] [potassium chloride]	completely and permanently impaired	tails were permanently curled around the cell body	zero	about 85%	~60	29	about 53%	~38	yielded a suitable triggering event
potassium phosphate [reference compound]									failed to produce such a suitable outcome
